{"source": "patent US20160091487A1", "about": "“ENGINEERING INDIVIDUALLY ADDRESSABLE CELLULAR SPHEROIDS USING AQUEOUS TWO-PHASE SYSTEMS” (priority 2012, published 2016)", "system": "MDA-MB-157 spheroids", "assay": "Viability of ATPS-generated cancer cell spheroids treated with cisplatin (PRESTO BLUE enzymatic assay)", "assay_type": "cell-based", "settings": "cisplatin 25 to 200 μM, four days incubation", "text": "Component 1 contains 5%(w/w) polyethylene glycol (PEG, Mw: 35,000) and component 2 contains 12.8%(w/w) Dextran (DEX, Mw: 500,000). […] First, the PEG phase is loaded into wells of a well plate (destination plate) and this plate is placed on the work surface of a robotic liquid handler (FIG. 2). Then cells are harvested from a culture dish, mixed with the DEX phase at a 1:1 volumetric ratio to reduce DEX concentration to 6.4% (w/w), and loaded into a second plate (source plate). This plate is also placed on the work surface of the liquid handler. Pipette tips are mounted onto the dispense head of the liquid handler (FIG. 3) and are immersed into the source plate to load a defined volume (˜0.3 microliters) of the cell suspension in DEX phase. After retraction from the source plate, pipette tips are lowered into the destination plate and dispense their content. Dispensed solution forms a single droplet containing cells in each well and the droplet remains immiscible from its surrounding PEG phase (FIG. 4a). Cells aggregate and form an individual spheroid in each well (FIG. 4b and FIG. 5). […] The drug, diluted with culture media, was renewed once by the addition of 50 μL after two days of incubation.", "data": [{"molecule": "N.N.[Cl][Pt][Cl]", "note": "[cisplatin]", "values": [{"measurement": "percent viability trend against drug concentration", "result": "gradual decrease as the cisplatin concentration increases"}]}]}
